Data: patent EP0442744A2, “Treatment of viral disease by glycosides” (TSUMURA & CO., priority 1990, dated 1991)

What was measured:
[1] = tested on: Herpes simplex virus; test: Herpes virus inhibition experiment in FL cells (polykaryotic giant cell count); format: cell-based; conditions: for minimal effective concentration: minimum concentration showing no polykaryotic giant cells after 24 hours, FL cells infected with Herpes simplex virus, read-out: Antivial activity
Experimental: (§1) When the experiment was started, the medium was removed from the dishes and a suspension (1 ml) containing Herpes simplex virus at the predetermined concentration in the medium was added to the dishes. The dishes were incubated in an incubator under the humidified air containing 5% CO₂ at 36°C for one hour to allow the adsorption of the viruses. Then the medium was removed and a fresh medium containing the test compounds was added. After 24 hours, the number of polykaryotic giant cells in each dish was counted and the minimum concentration showing no polykaryotic giant cells was taken as the antivirally active concentration to the herpes virus. The experiment was repeated without the virus and the minimum concentration at which cells died was taken as the cytotoxic concentration.

[2] = in vitro; conditions: human, fl cells
Experimental: as §1

[3] = Cytotoxicity in FL cells (experiment repeated without the virus); conditions: human
Experimental: as §1

Row | Compound | Antivial activity [1] | MCC at 24 h [2] | minimal effective concentration [1] | MCC [3]
1 | C[C@]12CC[C@H](O)C[C@H]1CC[C@@H]1[C@@H]2CC[C@]2(C)[C@@H](c3ccc(=O)oc3)CC[C@]12O [Compound 7, 3,14-dihydroxybufa-20,22-dienolide] | 8 ng/mL | 0.5 µg/mL |  | 
2 | C[C@@H]1O[C@@H](O[C@H]2CC[C@]3(C=O)[C@H]4CC[C@]5(C)[C@@H](C6=CC(=O)OC6)CC[C@]5(O)[C@@H]4CC[C@]3(O)C2)[C@H](O)[C@H](O)[C@H]1O [Compound 6, 3β-[(6-deoxy-α-L-mannopyranosyl)oxy]-5,14-dihydroxy-19-oxo-5β-card-20(22) enolide] |  |  | 0.025 µg/mL | 0.38 µg/mL
3 | C[C@@H]1O[C@@H](O[C@H]2C[C@@H](O)[C@]3(CO)[C@H]4[C@H](O)C[C@]5(C)[C@@H](C6=CC(=O)OC6)CC[C@]5(O)[C@@H]4CC[C@]3(O)C2)[C@H](O)[C@H](O)[C@H]1O [Compound 4, 3-[(6-deoxy-α-L-mannopyranosyl)oxy]-1,5,11α, 14,19-pentahydroxycard-20(22) enolide] |  |  | 0.04 µg/mL | 0.46 µg/mL
4 | C[C@H]1O[C@@H](O[C@H]2CC[C@]3(C=O)[C@H]4CC[C@]5(C)[C@@H](C6=CC(=O)OC6)CC[C@]5(O)[C@@H]4CC[C@]3(O)C2)C[C@H](O)[C@@H]1O [Compound 5] |  |  | 0.03 µg/mL | 0.46 µg/mL
5 | C[C@H]1O[C@@H](O[C@H]2[C@@H](O)C[C@H](O[C@H]3[C@@H](O)C[C@H](O[C@H]4CC[C@@]5(C)[C@H](CC[C@@H]6[C@@H]5C[C@@H](O)[C@]5(C)[C@@H](C7=CC(=O)OC7)CC[C@]65O)C4)O[C@@H]3C)O[C@@H]2C)C[C@H](O)[C@@H]1O [Compound 2, 3-[(O-2,6-dideoxy-β-D-ribo-hexopranoxyl-(1→4)-O-2,6-dideoxy-β-D-ribo-hexopyranosyl-(1→4)-2,6-dideoxy-β-D-ribo-hexopyranosyl)-oxy]-12,14-dihydroxycard-(20)22-enolide] |  |  | 0.05 µg/mL | 0.48 µg/mL
6 | C[C@H]1O[C@@H](O[C@H]2[C@@H](O)C[C@H](O[C@H]3[C@@H](O)C[C@H](O[C@H]4CC[C@@]5(C)[C@H](CC[C@@H]6[C@@H]5CC[C@]5(C)[C@@H](C7=CC(=O)OC7)CC[C@]65O)C4)O[C@@H]3C)O[C@@H]2C)C[C@H](O)[C@@H]1O [Compound 1, 3-[(O-2,6-dideoxy-β-D-ribo-hexopranoxyl-(1→4)-O-2,6-dideoxy-β-D-ribo-hexopyranosyl-(1→4)-2,6-dideoxy-β-D-ribo-hexopyranosyl)-oxy]-14-hydroxycard-(20)22-enolide] |  |  | 0.025 µg/mL | 0.48 µg/mL
